Laboratory results from the NIST ThermoML archive (doi:10.1021/je700339f).
± gives the expanded uncertainty stated by the source.

Settings: 101.33 kPa, Liquid

SMILES | mass density (298.15 K) | mass density (308.15 K)
CC(=O)N(C)C [N,N-dimethylethanamide] | 937 ± 0.4 kg/m3 | 926.9 ± 0.4 kg/m3
CN(C)C=O [dimethylformamide] | 943.8 ± 0.4 kg/m3 | 934.2 ± 0.4 kg/m3
